Test system: 485368-065-R3-J5-PDC spheroids with HUVEC/MSC, viability
Assay: Anticancer human tumor 485368-065-R3-J5-PDC patient-derived pancreatic carcinoma cell line growth inhibition [RAS]
Settings: for IC50: curve of first compound; for viability, T/C: stronger effect = lower value
In short: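 Tumour cells grown as complex spheroids with HUVEC endothelial cells and mesenchymal stem cells, treated with RAS pathway inhibitor combinations. Each agent spans half-log steps from near clinical Cmax, or 10 microM where Cmax is unknown.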
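Note: spheroids exposed to agents for seven days before readout.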

For `CC1(O)CCCC1n1c(=O)c(C(F)F)cc2cnc(NC3CCN(S(C)(=O)=O)CC3)nc21` (centres undefined) + CCn1c(-c2cccnc2C(C)OC)c2c3cc(ccc31)N1CCOC(CC(NC(=O)C(C(C)C)N(C)C(=O)C3(F)CCN(C(=O)C#CC(C)(C)N(C)C)CC3)C(=O)N3CCCC(N3)C(=O)OCC(C)(C)C2)C1, the IC50 (second compound 0.000949 µM) was 279 nM, the IC50 (second compound 0.003 µM) was 722 nM and the IC50 (second compound 0.00949 µM) was 580 nM. For the same compound, the IC50 (second compound 0.03 µM) was 254 nM, the IC50 (second compound 0.0949 µM) was 636 nM and the IC50 (second compound 0.3 µM) was 656 nM. It also gave a viability, T/C (second compound 0.000949 µM, first compound 0.0316 µM) of 106%, a viability, T/C (second compound 0.000949 µM, first compound 0.1 µM) of 79.2% and a viability, T/C (second compound 0.000949 µM, first compound 0.316 µM) of 44.9%. It also gave a viability, T/C (second compound 0.000949 µM, first compound 1 µM) of 40.2%, a viability, T/C (second compound 0.000949 µM, first compound 3.16 µM) of 46% and a viability, T/C (second compound 0.000949 µM, first compound 10 µM) of 24.5%. For the same compound, the viability, T/C (second compound 0.003 µM, first compound 0.0316 µM) was 91.4%, the viability, T/C (second compound 0.003 µM, first compound 0.1 µM) was 82.9% and the viability, T/C (second compound 0.003 µM, first compound 0.316 µM) was 50.4%. The viability, T/C (second compound 0.003 µM, first compound 1 µM) was 41.9%, the viability, T/C (second compound 0.003 µM, first compound 3.16 µM) was 48.5% and the viability, T/C (second compound 0.003 µM, first compound 10 µM) was 21.3%. The viability, T/C (second compound 0.00949 µM, first compound 0.0316 µM) was 92.8%, the viability, T/C (second compound 0.00949 µM, first compound 0.1 µM) was 77.1% and the viability, T/C (second compound 0.00949 µM, first compound 0.316 µM) was 42.9%. For the same compound, the viability, T/C (second compound 0.00949 µM, first compound 1 µM) was 48.2%, the viability, T/C (second compound 0.00949 µM, first compound 3.16 µM) was 44.8% and the viability, T/C (second compound 0.00949 µM, first compound 10 µM) was 18%. For the same compound, the viability, T/C (second compound 0.03 µM, first compound 0.0316 µM) was 97.6%, the viability, T/C (second compound 0.03 µM, first compound 0.1 µM) was 88.6% and the viability, T/C (second compound 0.03 µM, first compound 0.316 µM) was 40.8%. The viability, T/C (second compound 0.03 µM, first compound 1 µM) was 41.2%, the viability, T/C (second compound 0.03 µM, first compound 3.16 µM) was 49.2% and the viability, T/C (second compound 0.03 µM, first compound 10 µM) was 17.4%. For the same compound, the viability, T/C (second compound 0.0949 µM, first compound 0.0316 µM) was 96%, the viability, T/C (second compound 0.0949 µM, first compound 0.1 µM) was 80% and the viability, T/C (second compound 0.0949 µM, first compound 0.316 µM) was 48.5%. It also gave a viability, T/C (second compound 0.0949 µM, first compound 1 µM) of 41.2%, a viability, T/C (second compound 0.0949 µM, first compound 3.16 µM) of 49.8% and a viability, T/C (second compound 0.0949 µM, first compound 10 µM) of 17.4%. It also gave a viability, T/C (second compound 0.3 µM, first compound 0.0316 µM) of 105%, a viability, T/C (second compound 0.3 µM, first compound 0.1 µM) of 86.1% and a viability, T/C (second compound 0.3 µM, first compound 0.316 µM) of 47%. It also gave a viability, T/C (second compound 0.3 µM, first compound 1 µM) of 44.8%, a viability, T/C (second compound 0.3 µM, first compound 3.16 µM) of 48.5% and a viability, T/C (second compound 0.3 µM, first compound 10 µM) of 13.1%.
For `Cc1nc(N2CCC3(CC2)COC(C)C3N)c(CO)nc1Sc1ccnc(N)c1Cl` (centres undefined) + C=CC(=O)N1CCN(c2nc(OCC3CCCN3C)nc3c(F)c(-c4nc(N)cc(C)c4C(F)(F)F)c(Cl)cc23)C(C)C1, the IC50 (second compound 0.00316 µM) was 7820 nM, the IC50 (second compound 0.01 µM) was 7830 nM and the IC50 (second compound 0.0316 µM) was greater than 10000 nM. It also gave an IC50 (second compound 0.1 µM) greater than 10000 nM, an IC50 (second compound 0.316 µM) greater than 10000 nM and an IC50 (second compound 1 µM) greater than 10000 nM. For the same compound, the viability, T/C (second compound 0.00316 µM, first compound 0.0316 µM) was 101%, the viability, T/C (second compound 0.00316 µM, first compound 0.1 µM) was 84.3% and the viability, T/C (second compound 0.00316 µM, first compound 0.316 µM) was 83.6%. For the same compound, the viability, T/C (second compound 0.00316 µM, first compound 1 µM) was 68.2%, the viability, T/C (second compound 0.00316 µM, first compound 3.16 µM) was 57.7% and the viability, T/C (second compound 0.00316 µM, first compound 10 µM) was 47.6%. The viability, T/C (second compound 0.01 µM, first compound 0.0316 µM) was 91.7%, the viability, T/C (second compound 0.01 µM, first compound 0.1 µM) was 89.4% and the viability, T/C (second compound 0.01 µM, first compound 0.316 µM) was 85.1%. For the same compound, the viability, T/C (second compound 0.01 µM, first compound 1 µM) was 72.8%, the viability, T/C (second compound 0.01 µM, first compound 3.16 µM) was 64.6% and the viability, T/C (second compound 0.01 µM, first compound 10 µM) was 45.9%. The viability, T/C (second compound 0.0316 µM, first compound 0.0316 µM) was 97.4%, the viability, T/C (second compound 0.0316 µM, first compound 0.1 µM) was 93.1% and the viability, T/C (second compound 0.0316 µM, first compound 0.316 µM) was 66.8%. For the same compound, the viability, T/C (second compound 0.0316 µM, first compound 1 µM) was 61.5%, the viability, T/C (second compound 0.0316 µM, first compound 3.16 µM) was 63.1% and the viability, T/C (second compound 0.0316 µM, first compound 10 µM) was 61.7%. The viability, T/C (second compound 0.1 µM, first compound 0.0316 µM) was 86.4%, the viability, T/C (second compound 0.1 µM, first compound 0.1 µM) was 81.7% and the viability, T/C (second compound 0.1 µM, first compound 0.316 µM) was 75.6%. It also gave a viability, T/C (second compound 0.1 µM, first compound 1 µM) of 75.6%, a viability, T/C (second compound 0.1 µM, first compound 3.16 µM) of 70.7% and a viability, T/C (second compound 0.1 µM, first compound 10 µM) of 53.1%. It also gave a viability, T/C (second compound 0.316 µM, first compound 0.0316 µM) of 98.5%, a viability, T/C (second compound 0.316 µM, first compound 0.1 µM) of 89.7% and a viability, T/C (second compound 0.316 µM, first compound 0.316 µM) of 79.9%. For the same compound, the viability, T/C (second compound 0.316 µM, first compound 1 µM) was 77%, the viability, T/C (second compound 0.316 µM, first compound 3.16 µM) was 65.5% and the viability, T/C (second compound 0.316 µM, first compound 10 µM) was 51.2%. It also gave a viability, T/C (second compound 1 µM, first compound 0.0316 µM) of 97.3%, a viability, T/C (second compound 1 µM, first compound 0.1 µM) of 95.8% and a viability, T/C (second compound 1 µM, first compound 0.316 µM) of 80.3%. The viability, T/C (second compound 1 µM, first compound 1 µM) was 73.1%, the viability, T/C (second compound 1 µM, first compound 3.16 µM) was 58.7% and the viability, T/C (second compound 1 µM, first compound 10 µM) was 50.1%.
